According to ChEMBL document CHEMBL4138123, “Design, synthesis and biological evaluation of novel pyrazolochalcones as potential modulators of PI3K/Akt/mTOR pathway and inducers of apoptosis in breast cancer cells” (Eur J Med Chem, 2017):

Columns and labels:
[1] = tested on: OVCAR-8; test: Cytotoxicity against human OVCAR8 cells assessed as cell growth at 1 uM after 48 hrs by sulforhodamine B assay relative to control; format: functional; conditions: OVCAR-8, 48 h, read-out: Activity
[2] = tested on: OVCAR-8; test: Cytotoxicity against human OVCAR8 cells assessed as cell growth at 0.01 uM after 48 hrs by sulforhodamine B assay relative to control; format: functional; conditions: OVCAR-8, 48 h, read-out: Activity
[3] = tested on: SK-MEL-5; test: Cytotoxicity against human SK-MEL-5 cells assessed as cell growth at 1 uM after 48 hrs by sulforhodamine B assay relative to control; format: functional; conditions: SK-MEL-5, 48 h, read-out: Activity
[4] = tested on: MDA-MB-231; test: Cytotoxicity against human MDA-MB-231 cells assessed as growth inhibition after 48 hrs by MTT assay; format: functional, cell-based; conditions: MDA-MB-231, 48 h
[5] = tested on: UACC-62; test: Cytotoxicity against human UACC62 cells assessed as growth inhibition after 48 hrs by sulforhodamine B assay; format: functional; conditions: UACC-62, 48 h
[6] = tested on: TK-10; test: Cytotoxicity against human TK10 cells assessed as cell growth at 100 uM after 48 hrs by sulforhodamine B assay relative to control; format: functional; conditions: TK-10, 48 h, read-out: Activity
[7] = tested on: NCI-H522; test: Cytotoxicity against human NCI-H522 cells assessed as cell growth at 100 uM after 48 hrs by sulforhodamine B assay relative to control; format: functional; conditions: NCI-H522, 48 h, read-out: Activity
[8] = tested on: HCT-15; test: Cytotoxicity against human HCT15 cells assessed as cell growth at 0.01 uM after 48 hrs by sulforhodamine B assay relative to control; format: functional; conditions: HCT-15, 48 h, read-out: Activity
[9] = tested on: K562; test: Cytotoxicity against human K562 cells assessed as cell growth at 0.01 uM after 48 hrs by sulforhodamine B assay relative to control; format: functional; conditions: K562, 48 h, read-out: Activity
[10] = tested on: SK-MEL-28; test: Cytotoxicity against human SK-MEL-28 cells assessed as cell growth at 10 uM after 48 hrs by sulforhodamine B assay relative to control; format: functional; conditions: SK-MEL-28, 48 h, read-out: Activity
[11] = tested on: SF-268; test: Cytotoxicity against human SF268 cells assessed as cell growth at 0.01 uM after 48 hrs by sulforhodamine B assay relative to control; format: functional; conditions: SF-268, 48 h, read-out: Activity
[12] = tested on: HL-60(TB); test: Cytotoxicity against human HL-60(TB) cells assessed as growth inhibition after 48 hrs by sulforhodamine B assay; format: functional; conditions: HL-60, 48 h
[13] = tested on: HT-29; test: Cytotoxicity against human HT-29 cells assessed as growth inhibition after 48 hrs by sulforhodamine B assay; format: functional; conditions: HT-29, 48 h
[14] = tested on: SNB-19; test: Cytotoxicity against human SNB19 cells assessed as cell growth at 0.1 uM after 48 hrs by sulforhodamine B assay relative to control; format: functional; conditions: SNB-19, 48 h, read-out: Activity
[15] = tested on: NCI-H226; test: Cytotoxicity against human NCI-H226 cells assessed as cell growth at 10 uM after 48 hrs by sulforhodamine B assay relative to control; format: functional; conditions: NCI-H226, 48 h, read-out: Activity
[16] = tested on: IGROV-1; test: Cytotoxicity against human IGROV1 cells assessed as cell growth at 1 uM after 48 hrs by sulforhodamine B assay relative to control; format: functional; conditions: IGROV-1, 48 h, read-out: Activity
[17] = tested on: OVCAR-8; test: Cytotoxicity against human OVCAR8 cells assessed as cell growth at 0.1 uM after 48 hrs by sulforhodamine B assay relative to control; format: functional; conditions: OVCAR-8, 48 h, read-out: Activity
[18] = tested on: MDA-MB-468; test: Cytotoxicity against human MDA-MB-468 cells assessed as cell growth at 10 uM after 48 hrs by sulforhodamine B assay relative to control; format: functional; conditions: MDA-MB-468, 48 h, read-out: Activity
[19] = tested on: MOLT-4; test: Cytotoxicity against human MOLT4 cells assessed as cell growth at 0.1 uM after 48 hrs by sulforhodamine B assay relative to control; format: functional; conditions: MOLT-4, 48 h, read-out: Activity
[20] = tested on: CCRF-CEM; test: Cytotoxicity against human CCRF-CEM cells assessed as cell growth at 0.01 uM after 48 hrs by sulforhodamine B assay relative to control; format: functional; conditions: read-out: Activity
[21] = tested on: MCF7; test: Cytotoxicity against human MCF7 cells assessed as cell growth at 0.01 uM after 48 hrs by sulforhodamine B assay relative to control; format: functional; conditions: MCF7, 48 h, read-out: Activity
[22] = tested on: OVCAR-3; test: Cytotoxicity against human OVCAR3 cells assessed as cell growth at 100 uM after 48 hrs by sulforhodamine B assay relative to control; format: functional; conditions: OVCAR-3, 48 h, read-out: Activity
[23] = tested on: SF-539; test: Cytotoxicity against human SF539 cells assessed as growth inhibition after 48 hrs by sulforhodamine B assay; format: functional; conditions: SF-539, 48 h
[24] = tested on: TK-10; test: Cytotoxicity against human TK10 cells assessed as cell growth at 0.1 uM after 48 hrs by sulforhodamine B assay relative to control; format: functional; conditions: TK-10, 48 h, read-out: Activity
[25] = tested on: U-251; test: Cytotoxicity against human U251 cells assessed as cell growth at 0.01 uM after 48 hrs by sulforhodamine B assay relative to control; format: functional; conditions: U-251, 48 h, read-out: Activity
[26] = tested on: OVCAR-4; test: Cytotoxicity against human OVCAR4 cells assessed as cell growth at 10 uM after 48 hrs by sulforhodamine B assay relative to control; format: functional; conditions: OVCAR-4, 48 h, read-out: Activity
[27] = tested on: NCI-H226; test: Cytotoxicity against human NCI-H226 cells assessed as cell growth at 1 uM after 48 hrs by sulforhodamine B assay relative to control; format: functional; conditions: NCI-H226, 48 h, read-out: Activity
[28] = tested on: MCF7; test: Cytotoxicity against human MCF7 cells assessed as growth inhibition after 48 hrs by sulforhodamine B assay; format: functional; conditions: MCF7, 48 h
[29] = tested on: UO-31; test: Cytotoxicity against human UO31 cells assessed as cell growth at 0.1 uM after 48 hrs by sulforhodamine B assay relative to control; format: functional; conditions: UO-31, 48 h, read-out: Activity
[30] = tested on: OVCAR-4; test: Cytotoxicity against human OVCAR4 cells assessed as cell growth at 1 uM after 48 hrs by sulforhodamine B assay relative to control; format: functional; conditions: OVCAR-4, 48 h, read-out: Activity
[31] = tested on: NCI/ADR-RES; test: Cytotoxicity against human NCI/ADR-RES cells assessed as cell growth at 100 uM after 48 hrs by sulforhodamine B assay relative to control; format: functional; conditions: read-out: Activity
[32] = tested on: HCT-15; test: Cytotoxicity against human HCT15 cells assessed as growth inhibition after 48 hrs by sulforhodamine B assay; format: functional; conditions: HCT-15, 48 h
[33] = tested on: UACC-257; test: Cytotoxicity against human UACC257 cells assessed as cell growth at 10 uM after 48 hrs by sulforhodamine B assay relative to control; format: functional; conditions: UACC-257, 48 h, read-out: Activity
[34] = tested on: HCC 2998; test: Cytotoxicity against human HCC2998 cells assessed as growth inhibition after 48 hrs by sulforhodamine B assay; format: functional; conditions: HCC 2998, 48 h
[35] = tested on: A549; test: Cytotoxicity against human A549/ATCC cells assessed as growth inhibition after 48 hrs by sulforhodamine B assay; format: functional; conditions: A549, 48 h

COc1cc(-c2cc(/C=C/C(=O)c3ccc(F)c(F)c3)[nH]n2)cc(OC)c1OC
growth at 1 µM [1]: 89% | growth at 0.01 µM [2]: 95% | growth at 1 µM [3]: 90% | IC50 [4]: 1.5 µM | LC50 [5]: 35.3 µM | TGI [5]: 7.44 µM | growth at 100 µM [6]: -37% | growth at 100 µM [7]: -53% | growth at 0.01 µM [8]: 97% | growth at 0.01 µM [9]: 100% | growth at 10 µM [10]: 32% | growth at 0.01 µM [11]: 94% | LC50 [12]: > 100 µM | TGI [12]: 6.03 µM | LC50 [13]: 40.8 µM | TGI [13]: 6.46 µM | growth at 0.1 µM [14]: 87% | growth at 10 µM [15]: 16% | growth at 1 µM [16]: 95% | growth at 0.1 µM [17]: 96% | growth at 10 µM [18]: -2% | growth at 0.1 µM [19]: 106% | growth at 0.01 µM [20]: 99% | growth at 0.01 µM [21]: 91% | growth at 100 µM [22]: -64% | LC50 (concentration killing 50% of cells) [23]: 70 µM | TGI [23]: 17.7 µM | growth at 0.1 µM [24]: 88% | growth at 0.01 µM [25]: 97% | growth at 10 µM [26]: 17% | growth at 1 µM [27]: 95% | LC50 [28]: > 100 µM | TGI [28]: 12.3 µM | growth at 0.1 µM [29]: 86% | growth at 1 µM [30]: 67% | growth at 100 µM [31]: -5% | LC50 [32]: > 100 µM | TGI [32]: > 100 µM | growth at 10 µM [33]: -18% | LC50 [34]: > 100 µM | TGI [34]: 34.1 µM | LC50 (concentration giving 50% net cell kill) [35]: > 100 µM | TGI [35]: 9.9 µM

COc1ccc(-c2cc(/C=C/C(=O)c3cc(OC)c(OC)c(OC)c3)[nH]n2)cc1OC
growth at 1 µM [1]: 80% | growth at 0.01 µM [2]: 100% | growth at 1 µM [3]: 87% | IC50 [4]: 2 µM | GI50 [5]: 1.79 µM | LC50 [5]: 8.39 µM | TGI [5]: 3.88 µM | growth at 100 µM [6]: -94% | growth at 100 µM [7]: -90% | growth at 0.01 µM [8]: 99% | growth at 0.01 µM [9]: 100% | growth at 10 µM [10]: -49% | growth at 0.01 µM [11]: 99% | GI50 [12]: 1.69 µM | LC50 [12]: > 100 µM | TGI [12]: 14.8 µM | GI50 [13]: 1.3 µM | LC50 [13]: 5.75 µM | TGI [13]: 2.73 µM | growth at 0.1 µM [14]: 92% | growth at 10 µM [15]: -8% | growth at 1 µM [16]: 93% | growth at 0.1 µM [17]: 100% | growth at 10 µM [18]: -62% | growth at 0.1 µM [19]: 95% | growth at 0.01 µM [20]: 97% | growth at 0.01 µM [21]: 92% | growth at 100 µM [22]: -83% | GI50 [23]: 0.3 µM | LC50 (concentration killing 50% of cells) [23]: 4.57 µM | TGI [23]: 1.48 µM | growth at 0.1 µM [24]: 89% | growth at 0.01 µM [25]: 99% | growth at 10 µM [26]: -11% | growth at 1 µM [27]: 73% | GI50 [28]: 1.06 µM | TGI [28]: 2.5 µM | growth at 0.1 µM [29]: 82% | growth at 1 µM [30]: 66% | growth at 100 µM [31]: -7% | GI50 [32]: 1.19 µM | LC50 [32]: > 100 µM | TGI [32]: 3.85 µM | growth at 10 µM [33]: -64% | GI50 [34]: 1.9 µM | LC50 [34]: 6.09 µM | TGI [34]: 3.4 µM | GI50 [35]: 2.39 µM | LC50 (concentration giving 50% net cell kill) [35]: 62.4 µM | TGI [35]: 9.34 µM
